Test results from PMC12097015, “Development of MDM2‐Targeting PROTAC for Advancing Bone Regeneration” (Advanced Science, 2025).
pKd: −log10 of the molar value.

How the values were obtained:
[1] = target: MDM2 (Homo sapiens, UniProt Q00987); experiment: Microscale thermophoresis (MST) binding assay; parameters: made in house; host or cells: E. coli BL21 (DE3); conditions: His-Tag MDM2, n = 3, read-out: dissociation constant (Kd)
Experimental: E. coli BL21 (DE3) competent cells transformed with pSPEL870 were used to express MDM2 protein.^[ [27] ^] The recombinant strain was cultured in 500 mL 2XYT at 37 °C until the optical density (OD600 ) reached 0.5. Protein expression was induced by adding 0.2 mM isopropyl β‐D‐1‐thiogalactopyranoside (IPTG; Bioshop, Canada) at 20 °C overnight. […] The protein was purified using Ni‐NTA resin (Qiagen, Germany), according to the manufacturer's protocol. The purified protein was buffer exchanged with phosphate‐buffered saline (PBS, pH 7.4) using a centrifugal filter unit (MWCO: 10 K; Merck Millipore, USA). The protein was stored at –20 °C in PBS with 20% glycerol and 1 mM dithiothreitol (DTT).
The His‐Tag MDM2 protein was labeled using a His‐Tag Labeling Kit RED‐tris‐NTA second Generation (NanoTemper, MO‐L018) according to the manufacturer's instructions. […] The final mixtures were transferred to capillaries (NanoTemper, MO‐K022) and the samples were measured using a Monolith NT.115Pico (NanoTemper) instrument (auto LED power; medium MST power). […] The signals were represented as normalized changes in fluorescence (Fnorm ) upon ligand binding. Baseline‐corrected normalized fluorescence (DFnorm ) was obtained from Fnorm values using MO Affinity Analysis, and the dissociation constants (Kd ) were determined by curve fitting (variable slope model) using GraphPad Prism 10.

[2] = test system: rabbit calvaria; experiment: Rabbit calvarial vertical onlay graft model; assay type: in vivo, New Zealand white rabbits; conditions: eight weeks, CL144 10 μΜ or rhBMP‐2 3.85 μΜ soaked on BCP carrier
Experimental: Total six male, New Zealand white rabbits, weighing ≈2.8–3.2 kg were used for the rabbit calvaria onlay graft model. Rabbits were kept in separate cages under standard laboratory conditions with free access to food and water and provided standard meals according to the ARRIVE guidelines. The animals were sacrificed eight weeks postoperatively (n = 6), and each rabbit was divided into three different groups. […] General anesthesia was induced by injecting 65 mg kg^−1 ketamine (Ketalar, Yuhan, Korea) and xylazine (Rompun, Bayer, Korea). A full‐thickness flap was raised under local anesthesia with 2% lidocaine and 1:100 000 epinephrine to expose the calvarial bone. Slits around the sagittal suture were prepared using a trephine bur (7 mm in diameter, 1 mm in depth), and then four perforations of the external cortical bone plate were made. […]
‐Radiographic analysis: A single‐blinded examiner conducted all the measurements. […] The volume of the newly formed bone within the cylinders was measured.
The embedding paraffin blocks were then sectioned into 4 µm thick slices and stained with Masson trichrome. […] Within the cylinder, the total augmented area, area and proportion of newly formed bone, and residual graft materials were measured as previously described.^[ [34] ^]

[3] = test system: hBMSCs; experiment: Bulk RNA-seq of cultured hBMSCs; assay type: cell-based, human; conditions: CL144 versus Nutlin‐3
From the text: ‐Sample Preparation: In accordance with the manufacturer's instructions, total RNA was extracted using Trizol from hBMSCs treated with Nutlin‐3 or CL144 as well as from control cells. Utilizing an Agilent Bioanalyzer RNA ScreenTape kit (Agilent, 5067–5576), the integrity of the RNA (RIN) was verified. All samples with RIN value > 8.0 were used for sequencing.
‐Library Construction: RNA‐seq libraries were constructed according to the manufacturer's instructions for the SRSLY Library Prep kit, which were provided by Claretbio (CBS‐K155B‐24). […] This work fragmented and enriched the mRNA using oligo (dT). After ligating the cDNA fragments to adapters, PCR amplification was performed.
‐Sequencing: The libraries were performed to sequencing on the Nextseq2000 (Illumina) platform, utilizing the SRSLY RNA NanoPlus kit to generate 100 bp paired‐end reads.
‐Data Analysis: FastQC was used to trim the adaptor sequences and remove low‐quality reads from the raw sequencing data (FASTQ files). After that, Hisat2 v2.2.1 was used to align these clean reads with the Human Genome Reference GRCh38. DESeq2 was used for differential expression analysis, while g: Profiler was used for GO enrichment analysis.

[4] = test system: OVX-induced osteoporosis model; experiment: Ovariectomy (OVX)-induced osteoporosis mouse model; assay type: in vivo, C57BL6 mice; conditions: OVX mice
Experimental: -Establishment of Ovariectomized Mice Model: The experimental protocols were approved by the IACUC (Approval code: IACUC230118) at the CHA Laboratory Animal Research Center. The mice were handled in compliance with the Guidelines for the Care and Use of Animals at the institution. Female C57BL6 mice (seven weeks old (n = 57)) were randomly divided into six groups (n = 8-10): […] All surgeries and pump implantations were performed under aseptic conditions. Mice were anesthetized before removing both sides of the ovaries. In the fourth week following surgery, an Alzet osmotic pump (Durect Corp, #1004) was implanted in the mice. […] Images were acquired at an effective pixel size of 50 μm (130 kV and 60 μA radiation source; 1.0 mm aluminum filter). Subsequently, 3D images were reconstructed from the 2D X-ray projections by implementing the Feldkamp algorithm, and appropriate image corrections, including ring artifact correction, beam hardening correction, and fine-tuning, were processed using NRecon software (SkyScan 1173, Belgium). The dynamic image range (contrast limits) was determined at 0-0.3 in units of attenuation coefficient and was applied to all datasets for optimum image contrast. After acquisition and reconstruction of the datasets, images were first reoriented on each 3D plane using DataViewer software (SkyScan 1173, Belgium) to align the long axis of the femur parallel to the coronal and sagittal planes. Next, 3D morphometric analyses of the distal femur and body of the lumbar vertebrae were performed using CT-Analyzer software (SkyScan 1173, Belgium). Regarding the region of interest (ROI), this work analyzed the 1.5 mm […] trabecular bone of the distal femur metaphysis, excluding the growth plate. The ROIs were delineated using a freehand drawing tool while maintaining a […] clearance from the endosteal surface. […] A global threshold of 60 (1.01573 g cm^-3) was applied to all scans to extract a physiologically accurate representation of the trabecular bone phase. […] All quantitative and structural parameters followed the nomenclature and units recommended by the American Society for Bone and Mineral Research (ASBMR) Histomorphometry Nomenclature Committee. After data quantification,^[ [26b] ^] 3D rendered images were generated to visualize the analyzed regions using the marching cube method. -H&E staining: Following decalcification, the specimens were fixed in paraffin and longitudinally sliced to a thickness of 3 μm using a microtome. Subsequently, each sample was affixed to a slide and exposed to a temperature of 55 °C. […] The slides underwent a 1 min wash in flowing purified water and immersed in Harris hematoxylin-I for 5 min, followed by a 1 min wash under flowing tap water. Sections were briefly immersed in ammonia water for 30 s and washed with tap water for 3 min. Subsequently, the sections were stained with Eosin Y for 2 min and 30 s, followed by gradual drying in 95%-100% ethanol. Any residual stain was rinsed with distilled water and each section was mounted. -Masson's trichrome staining: Following deparaffinization and hydration, the sections underwent treatment with a mordant containing a 5% iron alum solution in a dry oven at 56 °C for 30 min. Sections were washed under running tap water for 5-6 min to remove picric acid. Sections were stained with Weigert's iron hematoxylin solution for 10 min, followed by rinsing with purified water. A 5 min staining with Biebrich scarlet-acid fuchsin solution ensued, succeeded by washing with purified water. The sections were immersed in a phosphomolybdic-phosphotungstic acid solution for 5 min. After discarding the solution, the sections were washed with distilled water. Differentiation was performed in 1% glacial acetic acid solution for 3 min. The solution was discarded, and the remaining stain was washed with distilled water.

[5] = test system: osteocalcin (OCN); experiment: Immunostaining of osteogenic markers in hBMSCs; assay type: cell-based, human; conditions: 10 µM
[6] = 0.5 mg kg^−1, osmotic pump 28 days
[7] = 0.5 mg kg^−1, same concentration of Nutlin‐3

MDM2, sequence (Q00987 whole entry, species assumed): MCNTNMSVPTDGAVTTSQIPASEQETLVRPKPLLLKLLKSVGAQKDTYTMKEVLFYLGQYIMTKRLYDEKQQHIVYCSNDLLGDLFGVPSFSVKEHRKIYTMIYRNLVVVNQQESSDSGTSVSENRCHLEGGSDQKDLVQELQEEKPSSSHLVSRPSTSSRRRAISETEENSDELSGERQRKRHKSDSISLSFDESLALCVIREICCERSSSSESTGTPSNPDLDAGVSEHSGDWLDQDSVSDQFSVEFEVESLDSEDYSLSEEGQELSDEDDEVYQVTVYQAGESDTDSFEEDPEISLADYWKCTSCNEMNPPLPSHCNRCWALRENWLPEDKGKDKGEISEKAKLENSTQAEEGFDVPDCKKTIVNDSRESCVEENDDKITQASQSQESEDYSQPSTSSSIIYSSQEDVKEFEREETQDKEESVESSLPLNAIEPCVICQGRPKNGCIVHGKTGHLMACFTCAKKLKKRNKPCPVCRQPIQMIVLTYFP

## COc1ccc(C2=N[C@H](c3ccc(Cl)cc3)[C@H](c3ccc(Cl)cc3)N2C(=O)N2CCN(CC(=O)NCCCCCCCCOc3cccc4c3C(=O)N(C3CCC(=O)NC3=O)C4=O)C(=O)C2)c(OC(C)C)c1 (stereo in doubt) [CL144]
[1]
  pKd: 5.95
[2]
  amount of new bone (histomorphometric analysis): 25.58 ± 11.70%
[3]
  COL8A2 expression (log2FC): 6.02
  COL11A1 expression (log2FC): 6.23
[4]; 0.5 mg kg^−1
  regenerative effect compared with alendronate: results comparable to those of the alendronate‐treated group
[4]; [6]
  recovery in BV/TV compared to the OVX group: 65%
  recovery in Tb.N compared to the OVX group: 58%
[4]; [7]
  improvement in BV/TV compared to the Nutlin‐3 group: 56%
  improvement in Tb.N compared to the Nutlin‐3 group: 61%
[4]; 1 mg kg^−1, osmotic pump 28 days
  recovery in BMD compared to the OVX group: 12%
[4]; 1 mg kg^−1, same concentration of Nutlin‐3
  improvement in BMD compared to the Nutlin‐3 group: 13%
[4]; tibia and femur tissues
  bone histology (H&E staining) versus OVX group: newly formed trabecular structures were observed
[5]
  osteocalcin (OCN) protein intensity compared to the control group: no statistically significant difference
